Laboratory results reported in US12544453B2, “Amphotericin B conjugated stabilized gold nanoparticles and uses thereof” (Max-Planck-Gesellschaft zur Förderung der Wissenschaften …, priority 2019, dated 2026).
≈ marks a conversion by molar mass, not a printed value. Like-named read-outs stand apart in the source and are kept apart here.

Key:
Test in all cases: Antifungal susceptibility testing, broth microdilution MIC
Assay type in all cases: cell-based
[1] = tested on: Aspergillus fumigatus; conditions: read-out: Minimum Inhibitory Concentration (MIC)
Procedure: (§1) The minimum inhibitory concentrations (MICs) of fluconazole, amphotericin B, amphotericin B thiohexose or thiopentose stabilized gold nanoparticles, and of naked gold nanoparticles were determined using broth microdilution methods following the guidelines of the Clinical and Laboratory Standards Institute (Reference Method for Broth Dilution Antifungal Susceptibility Testing of Yeasts, Alexander B. D., 2017, M27-A4). Microtiter 96-well plates containing two-fold serial dilutions, at final concentrations ranging from […], of the test agents in RPMI-1640 medium (buffered with MOPS and adjusted to pH=7) were inoculated with the freshly-prepared fungal suspensions. Microtiter plates were incubated at 35° C. for 24-72 hrs according to the tested species.

[2] = tested on: Candida albicans; conditions: read-out: Minimum Inhibitory Concentration (MIC)
Procedure: as §1

[3] = tested on: Candida auris; conditions: Candidozyma auris, fluconazole MIC50 (50% growth reduction), read-out: Minimum Inhibitory Concentration (MIC)
Procedure: as §1

[4] = tested on: Candida glabrata; conditions: Nakaseomyces glabratus, fluconazole MIC50 (50% growth reduction), read-out: Minimum Inhibitory Concentration (MIC)
Procedure: as §1

[5] = tested on: Candida krusei; conditions: Pichia kudriavzevii, read-out: Minimum Inhibitory Concentration (MIC)
Procedure: as §1

[6] = tested on: Candida parapsilosis; conditions: Lodderomyces parapsilosis, read-out: Minimum Inhibitory Concentration (MIC)
Procedure: as §1

[7] = tested on: Candida tropicalis
Procedure: as §1

[8] = tested on: Cryptococcus gatti; conditions: read-out: Minimum Inhibitory Concentration (MIC)
Procedure: as §1

[9] = tested on: Cryptococcus neoformans; conditions: read-out: Minimum Inhibitory Concentration (MIC)
Procedure: as §1

MIC ([1]; Aspergillus fumigatus NR-35303, fluconazole MIC50 (50% growth reduction)): 128 µg/mL (≈ 418 µM)
MIC ([1]; Aspergillus fumigatus NR-35304, fluconazole MIC50 (50% growth reduction)): > 128 µg/mL
MIC ([1]; Aspergillus fumigatus NR-41312, fluconazole MIC50 (50% growth reduction)): 128 µg/mL (≈ 418 µM)
MIC ([2]; ATCC10231, Candida albicans ATCC 10231, fluconazole MIC50 (50% growth reduction)): 2 µg/mL (≈ 6.53 µM)
MIC ([2]; ATCC26790, Candida albicans ATCC 26790, fluconazole MIC50 (50% growth reduction)): 1 µg/mL (≈ 3.27 µM)
MIC ([2]; ATCC64124, Candida albicans ATCC 64124, fluconazole MIC50 (50% growth reduction)): 128 µg/mL (≈ 418 µM)
MIC ([2]; Candida albicans NR 29446, fluconazole MIC50 (50% growth reduction)): > 128 µg/mL
MIC ([2]; Candida albicans NR 29448, fluconazole MIC50 (50% growth reduction)): > 128 µg/mL
MIC ([2]; SC5314, Candida albicans SC5314, fluconazole MIC50 (50% growth reduction)): 0.5 µg/mL (≈ 1.63 µM)
MIC ([3]; Candida auris 381): 1 µg/mL (≈ 3.27 µM)
MIC ([3]; Candida auris 385): > 128 µg/mL
MIC ([3]; Candida auris 386): > 128 µg/mL
MIC ([3]; Candida auris 389): > 128 µg/mL
MIC ([3]; Candida auris 390): > 128 µg/mL
MIC ([4]; ATCC2001, Candida glabrata ATCC 2001): 4 µg/mL (≈ 13.1 µM)
MIC ([4]; ATCC66032, Candida glabrata ATCC 66032): 8 µg/mL (≈ 26.1 µM)
MIC ([4]; Candida glabrata ATCC MYA-2950): 8 µg/mL (≈ 26.1 µM)
MIC ([4]; Candida glabrata CAB 524041): 4 µg/mL (≈ 13.1 µM)
MIC ([5]; ATCC14243): 16 µg/mL (≈ 52.2 µM)
MIC ([5]; ATCC34135): 16 µg/mL (≈ 52.2 µM)
MIC [5]: 16 µg/mL (≈ 52.2 µM)
MIC ([6]; ATCC22019): 2 µg/mL (≈ 6.53 µM)
MIC [6]: 0.5 µg/mL (≈ 1.63 µM)
MIC ([7]; ATCC1369, read-out: Minimum Inhibitory Concentration (MIC)): 0.5 µg/mL (≈ 1.63 µM)
MIC ([7]; ATCC13803, read-out: Minimum Inhibitory Concentration (MIC)): 0.25 µg/mL (≈ 0.816 µM)
MIC ([8]; Cryptococcus gatti NR-43208, fluconazole MIC50 (50% growth reduction)): 8 µg/mL (≈ 26.1 µM)
MIC ([8]; Cryptococcus gatti NR-43209, fluconazole MIC50 (50% growth reduction)): 16 µg/mL (≈ 52.2 µM)
MIC ([8]; Cryptococcus gatti NR-43210, fluconazole MIC50 (50% growth reduction)): 16 µg/mL (≈ 52.2 µM)
MIC ([8]; Cryptococcus gatti NR-43213, fluconazole MIC50 (50% growth reduction)): 8 µg/mL (≈ 26.1 µM)
MIC ([9]; Cryptococcus neoformans NR-41291, fluconazole MIC50 (50% growth reduction)): 16 µg/mL (≈ 52.2 µM)
MIC ([9]; Cryptococcus neoformans NR-41295, fluconazole MIC50 (50% growth reduction)): 32 µg/mL (≈ 104 µM)
MIC ([9]; Cryptococcus neoformans NR-41298, fluconazole MIC50 (50% growth reduction)): 4 µg/mL (≈ 13.1 µM)
MIC ([9]; Cryptococcus neoformans NR-48767, fluconazole MIC50 (50% growth reduction)): 4 µg/mL (≈ 13.1 µM)
Structure (SMILES): OC(Cn1cncn1)(Cn1cncn1)c1ccc(F)cc1F [Fluconazole]
